Values of other authors as cited in patent US20160052846A1, “METHOD OF DEMULSIFYING AND PURIFYING ORGANIC PRODUCTS FROM AN EMULSION” (CODEXIS, INC., priority 2012, published 2016).
Read-outs that look alike come from different tables or passages of the source.

Settings: for Water sol: in words, no temperature

With `CCCC(C)O` (centres unmarked) [2-pentanol, pentan-2-ol] as the molecule, how does the “Water sol (g per 100 g)” value (at 20° C.) read?
The value was 4 at 20 °C g per 100 g.

With `CCCCCO` [Amyl alcohol, pentan-1-ol] as the molecule, how does the “Water sol (g per 100 g)” value (at 22° C.) read?
Its value is 2.7 at 22 °C g per 100 g.

Which “Water sol (g per 100 g)” value (at 15° C.) does the source give for `CC(C)CO` [Isobutanol, 2-methylpropan-1-ol] here?
Its value is 10 at 15 °C g per 100 g.

With `CC(C)CCO` [Isopentanol, 3-methylbutan-1-ol] as the molecule, how does the “Water sol (g per 100 g)” value (at 14° C.) read?
Its value is 2 at 14 °C g per 100 g.

Which Water sol does the source give for `CC(C)O` [Isopropanol, propan-2-ol] here?
Its Water sol is “soluble”.

With `CC(C)(C)CO` [Neopentyl alcohol, 2,2-dimethylpropan-1-ol] as the molecule, how does the Water sol read?
Its Water sol is “Slightly soluble”.

For `CC(C)C(C)O` (centres unmarked) [Sec iso amyl alcohol, 3-methylbutan-2-ol], which Water sol is on record?
The Water sol was “Slightly soluble”.

Which Water sol does the source give for propan-1-ol [Propanol] here?
Its Water sol is “soluble”.
